How the values were obtained:
chemokines = assay: Profile of secreted cytokines and chemokines in PBMC cultures; assay type: cell-based, human; conditions: PBMC cultures of HIV patients
Excerpt: (§1) Specifically, MB inhibits by 70 to 100% the level of HIV viral protein p24 in the culture supernatants. This effect correlates with the level of expression of viral messenger RNAs (nonspliced and single-spliced).

[1] = cited from earlier work
[2] = HIV+ patients, phase I and phase IIa; cited from earlier work
[3] = system: human immunodeficiency virus (HIV); conditions: macrophages and dendritic cells, PBMCs of infected patients; cited from earlier work
[4] = healthy volunteers and patients suffering from cancer; cited from earlier work
PBMCs = assay: Toxicity (number of live cells) in the same PBMC cultures; assay type: cell-based, human; conditions: live cells unchanged at start, appear to increase at end of culturing
Excerpt: as §1

[5] = system: mRNA encoding the Ro/SSA-like protein; assay: Semiquantitative RT-PCR of the expression of the mRNA encoding Ro/SSA-like in PBMCs; assay type: cell-based, human
Description: PBMCs from patients (P) infected with HIV or from control healthy donors (C) are isolated, depleted of CD8+ (Dynabeads, Dynal) and stimulated with PHA (5 μg/ml) for 3 days. The cells are then treated or not treated with murabutide (10 μ/ml) in the presence of interleukin 2 (IL2) (10U/ml) in RPMI medium supplemented with 10% fetal calf serum (FCS) for 6 hours or 24 hours in a proportion of a minimum of 5×10^6 cells per condition.
After treatment, the RNA in the cells is extracted (RNAplus, Quantum-bioprobe), then treated with DNase (Boerhinger) and reverse transcribed (RT) using an oligo(dT) in the presence of the Mu-MLV reverse transcriptase (Superscript II, Gibco).
The quality of the RTs is verified by PCR (25 cycles) with primers specific for GAPDH (5′GCCATCAATGACCCCTTCATTGAC 3′) (SEQ ID No. 18) and (5′TGACGAACATGGGGGCATCAGCAG 3′) (SEQ ID No. 19) using 20, 100 and 500 ng of total RNA. The inventors then carried out RT-PCRs (35 cycles) with primers specific for the mRNA encoding Ro/SSA-like, (5′ GAAAGAGAGGTCGCAGAGGCCTGT 3′) (SEQ ID No. 20) and (5′ TGATAAGGCTGAGGAAGGGAAATG 3′) (SEQ ID No. 21). The number of amplification cycles was determined beforehand (35 cycles). The amplified fragments are visualized on agarose gel (1%) in the presence of ethidium bromide, and then quantified using the Imager master program (Pharmacia).
For each dilution, the given value for the gene studied is related to that of the GAPDH (ratio=R). For each patient and each time (6 h or 24 h), the R of the cells treated with murabutide is related to that of the untreated cells. The results are then expressed as % increase or inhibition of expression of the gene relative to the untreated cells. It should be noted that, for each dilution tested, the R can vary slightly; the mean for the Rs was produced by taking care to always be in the linear phase of amplification.

[6] = target: recombinant Ro/SSA-like (SSA-56) protein, complete 485 aa open reading frame, His-tagged, expressed in E. coli (human) (UniProt Q6AZZ1); assay: ELISA on coated recombinant protein, control at 1/100
[7] = target: recombinant SSA-60 protein (UniProt P10155); assay: as above
Chain of UniProt P10155 (P10155 whole entry): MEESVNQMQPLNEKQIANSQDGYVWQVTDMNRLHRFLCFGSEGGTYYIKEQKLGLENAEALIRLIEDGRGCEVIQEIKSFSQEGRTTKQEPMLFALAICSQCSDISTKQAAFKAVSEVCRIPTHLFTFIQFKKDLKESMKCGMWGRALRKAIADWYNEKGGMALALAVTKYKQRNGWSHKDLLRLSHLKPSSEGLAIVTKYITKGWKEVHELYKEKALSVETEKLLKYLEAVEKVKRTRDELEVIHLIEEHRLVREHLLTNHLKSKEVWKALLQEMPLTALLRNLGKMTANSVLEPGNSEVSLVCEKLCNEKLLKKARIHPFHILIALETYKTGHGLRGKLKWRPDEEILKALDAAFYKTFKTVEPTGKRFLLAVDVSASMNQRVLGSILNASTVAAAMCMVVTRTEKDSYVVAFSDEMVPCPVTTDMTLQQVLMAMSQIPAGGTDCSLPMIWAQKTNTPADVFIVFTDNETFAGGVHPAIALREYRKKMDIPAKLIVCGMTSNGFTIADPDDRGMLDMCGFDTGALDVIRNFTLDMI

HIV Tat (HIV) = assay: as above
Helicase = assay: as above
HIV Nef (HIV) = assay: as above
[8] = target: recombinant SSB-48 protein (UniProt P05455); assay: as above
Chain of UniProt P05455 (P05455 whole entry): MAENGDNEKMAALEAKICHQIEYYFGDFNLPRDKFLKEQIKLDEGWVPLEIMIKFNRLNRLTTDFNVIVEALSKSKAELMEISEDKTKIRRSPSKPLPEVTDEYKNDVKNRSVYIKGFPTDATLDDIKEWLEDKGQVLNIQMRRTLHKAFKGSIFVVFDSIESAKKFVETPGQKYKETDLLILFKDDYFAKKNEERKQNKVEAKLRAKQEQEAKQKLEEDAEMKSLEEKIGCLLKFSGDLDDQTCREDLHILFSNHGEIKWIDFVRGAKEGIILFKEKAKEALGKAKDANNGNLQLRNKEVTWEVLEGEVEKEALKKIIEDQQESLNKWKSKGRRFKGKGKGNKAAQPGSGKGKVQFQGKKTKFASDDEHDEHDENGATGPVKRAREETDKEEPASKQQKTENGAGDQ

[9] = target: recombinant SSA-52 protein (human) (UniProt P19474); assay: as above
Chain of UniProt P19474 (P19474 whole entry): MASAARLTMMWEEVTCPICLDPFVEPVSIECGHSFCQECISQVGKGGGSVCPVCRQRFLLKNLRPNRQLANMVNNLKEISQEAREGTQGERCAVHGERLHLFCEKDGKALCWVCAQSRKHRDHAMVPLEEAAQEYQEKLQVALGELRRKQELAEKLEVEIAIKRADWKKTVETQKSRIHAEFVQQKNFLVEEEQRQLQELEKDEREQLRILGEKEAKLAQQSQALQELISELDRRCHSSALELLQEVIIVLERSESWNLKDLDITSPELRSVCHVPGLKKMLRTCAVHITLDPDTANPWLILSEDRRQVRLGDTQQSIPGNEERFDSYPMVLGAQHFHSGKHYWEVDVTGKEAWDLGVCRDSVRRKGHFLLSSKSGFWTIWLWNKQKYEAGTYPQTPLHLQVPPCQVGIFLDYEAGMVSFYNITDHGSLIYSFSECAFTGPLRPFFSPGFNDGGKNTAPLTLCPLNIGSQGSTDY

| Compound | induction of chemokines known to be inhibitors of HIV replication (chemokines) | inflammatory reactions ([1]; in vivo) | pyrogenicity ([1]; unlike MDP and many other analogs) | clinical tolerance [2] | HIV replication [3] | severe toxicity in clinical studies [4] | toxicity, number of live cells (PBMCs) | inhibition of expression of the mRNA encoding Ro/SSA-like ([5]; PBMCs from HIV+ patients after stimulation with murabutide) | inhibition of expression of the mRNA encoding Ro/SSA-like relative to untreated cells ([5]; PBMCs from HIV+ patients, murabutide 10 μ/ml, 6 h or 24 h, 7 patients/10) | inhibition of expression of the mRNA encoding Ro/SSA-like ([5]; PBMCs from healthy controls, observed only in 3 cases out of 8) | Absorbance value at 1/100 [6] [absorbance] | Absorbance value at 1/100 [7] [absorbance] | Absorbance value at 1/100 (HIV Tat (HIV)) [absorbance] | Absorbance value at 1/100 (Helicase) [absorbance] | Absorbance value at 1/100 (HIV Nef (HIV)) [absorbance] | Absorbance value at 1/100 [8] [absorbance] | Absorbance value at 1/100 [9] [absorbance] |
| --- | --- | --- | --- | --- | --- | --- | --- | --- | --- | --- | --- | --- | --- | --- | --- | --- | --- |
| CCCCOC(=O)[C@@H](CCC(N)=O)NC(=O)[C@H](C)NC(=O)[C@@H](C)O[C@H]1[C@H](O)[C@@H](CO)OC(O)[C@@H]1NC(C)=O (some centres unmarked) [Murabutide] | induces reproduction of chemokines | does not induce inflammatory reactions | not pyrogenic | good clinical tolerance | inhibits human immunodeficiency virus (HIV) replication | has not shown any severe toxicity | lack of toxicity | significant inhibition | more than 40% | inhibition is weaker | – | – | – | – | – | – | – |
| Control SP20 | – | – | – | – | – | – | – | – | – | – | 0.058 | 0.068 | 0.068 | 0.055 | 0.056 | 0.051 | 0.059 |
